# Patent US20160060260A1, “BROMODOMAIN INHIBITORS FOR TREATING DISEASE” (Board of Regents, The University of Texas System, priority 2014, published 2016)
# Target: T1, Recombinant human His-tagged Trim24-PHD-bromodomain (Homo sapiens, UniProt O15164)
# T1 construct: Recombinant human His-tagged Trim24-PHD-bromodomain (produced in-house); made in house
# T1 sequence (O15164 824-1006 limits assumed): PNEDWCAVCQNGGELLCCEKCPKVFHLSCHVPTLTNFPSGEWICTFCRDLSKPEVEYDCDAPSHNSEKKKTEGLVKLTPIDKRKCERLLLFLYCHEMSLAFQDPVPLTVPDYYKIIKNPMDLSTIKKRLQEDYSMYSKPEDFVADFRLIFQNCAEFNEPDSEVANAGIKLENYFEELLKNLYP
# Assay: Trim24 AlphaScreen Assay
# Type: binding
# Conditions: 5 nM Trim24 protein, 15 nM biotinylated H3K23ac (1-33aa) peptide
# Procedure, shortened: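 His-tagged Trim24-PHD-bromodomain, biotinylated H3K23ac (1-33aa) peptide and compound incubated 1 h at room temperature in 50 mM Hepes pH 7.5, 100 mM NaCl, 0.12 mM Triton X-100.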
row,SMILES,IC50
1,"CCCOc1cc(OCCCOC)cc(Oc2cc3c(cc2NS(=O)(=O)c2cccc4c2OCCO4)n(C)c(=O)n3C)c1 [Example 175, N-(6-(3-(3-methoxypropoxy)-5-propoxyphenoxy)-1,3-dimethyl-2-oxo-2,3-dihydro-1H-benzo[d]imidazol-5-yl)-2,3-dihydrobenzo[b][1,4]dioxine-5-sulfonamide]",100 to 1000 nM
2,"CCCOc1cccc(Oc2cc3c(cc2NS(=O)(=O)c2cc(OC)cc(OC)c2)n(C)c(=O)n3C)c1 [Example 169, N-(1,3-dimethyl-2-oxo-6-(3-propoxyphenoxy)-2,3-dihydro-1H-benzo[d]imidazol-5-yl)-3,5-dimethoxybenzenesulfonamide]",100 to 1000 nM
3,"CCCOc1ccc(F)c(Oc2cc3c(cc2NS(=O)(=O)c2cn(C)cn2)n(C)c(=O)n3C)c1 [Example 104, N-(6-(2-fluoro-5-propoxyphenoxy)-1,3-dimethyl-2-oxo-2,3-dihydro-1H-benzo[d]imidazol-5-yl)-1-methyl-1H-imidazole-4-sulfonamide]",> 1000 nM
4,"CCCOc1cc(OCCCCCCN)cc(Oc2cc3c(cc2NS(=O)(=O)c2ccccn2)n(C)c(=O)n3C)c1 [Example 187, N-(6-(3-((6-aminohexyl)oxy)-5-propoxyphenoxy)-1,3-dimethyl-2-oxo-2,3-dihydro-1H-benzo[d]imidazol-5-yl)pyridine-2-sulfonamide]",10 to 100 nM
5,"Cc1c(S(=O)(=O)Nc2cc3c(cc2Oc2cccc(OCc4ccccc4)c2)n(C)c(=O)n3C)cnn1C [Example 41, N-(6-(3-(benzyloxy)phenoxy)-1,3-dimethyl-2-oxo-2,3-dihydro-1H-benzo[d]imidazol-5-yl)-1,5-dimethyl-1H-pyrazole-4-sulfonamide]",100 to 1000 nM
6,"CCn1cc(S(=O)(=O)Nc2cc3c(cc2Oc2cccc(OCc4ccccc4)c2)n(C)c(=O)n3C)cn1 [Example 77, N-(6-(3-(benzyloxy)phenoxy)-1,3-dimethyl-2-oxo-2,3-dihydro-1H-benzo[d]imidazol-5-yl)-1-ethyl-1H-pyrazole-4-sulfonamide]",100 to 1000 nM
7,"COCCCOc1cc(C#N)cc(Oc2cc3c(cc2NS(=O)(=O)c2cn(C)c(C)n2)n(C)c(=O)n3C)c1 [Example 120, N-(6-(3-cyano-5-(3-methoxypropoxy)phenoxy)-1,3-dimethyl-2-oxo-2,3-dihydro-1H-benzo[d]imidazol-5-yl)-1,2-dimethyl-1H-imidazole-4-sulfonamide]",100 to 1000 nM
8,"Cc1nc(S(=O)(=O)Nc2cc3c(cc2Oc2cccc(OCC4CCNCC4)c2)n(C)c(=O)n3C)cn1C [Example 229, N-(1,3-dimethyl-2-oxo-6-(3-(piperidin-4-ylmethoxy)phenoxy)-2,3-dihydro-1H-benzo[d]imidazol-5-yl)-1,2-dimethyl-1H-imidazole-4-sulfonamide]",100 to 1000 nM
9,"CCCOc1cc(OCCCCCCN(C)C)cc(Oc2cc3c(cc2NS(=O)(=O)c2cn(C)cn2)n(C)c(=O)n3C)c1 [Example 188, N-(6-(3-((6-(dimethylamino)hexyl)oxy)-5-propoxyphenoxy)-1,3-dimethyl-2-oxo-2,3-dihydro-1H-benzo[d]imidazol-5-yl)-1-methyl-1H-imidazole-4-sulfonamide]",10 to 100 nM
10,"CCCOc1cc(OCCCCCCN)cc(Oc2cc3c(cc2NS(=O)(=O)c2ccc(OC)c(OC)c2)n(C)c(=O)n3C)c1 [Example 7, N-(6-{3-[(6-aminohexyl)oxy]-5-propoxyphenoxy}-1,3-dimethyl-2-oxo-2,3-dihydro-1H-1,3-benzodiazol-5-yl)-3,4-dimethoxybenzene-1-sulfonamide]",10 to 100 nM
11,CCCOc1cc(OCCCOC)cc(Oc2cc3c(cc2NS(=O)(=O)c2cnn(C)c2C)n(C)c(=O)n3C)c1 [Example 154],10 to 100 nM
12,"CCCOc1cc(OCCC)cc(Oc2cc3c(cc2NS(=O)(=O)c2cn(C)c(C)n2)n(C)c(=O)n3C)c1 [Example 90, N-(6-(3,5-dipropoxyphenoxy)-1,3-diemthyl-2-oxo-2,3-dihydro-1H-benzo[d]imidazol-5-yl)-1,2-dimethyl-1H-imidazole-4-sulfonamide]",10 to 100 nM
13,"Cn1cc(S(=O)(=O)Nc2cc3c(cc2Oc2cccc(OCC4CC4)c2)n(C)c(=O)n3C)cn1 [Example 101, N-(6-(3-(cyclopropylmethoxy)phenoxy)-1,3-dimethyl-2-oxo-2,3-dihydro-1H-benzo[d]imidazol-5-yl)-1-methyl-1H-pyrazole-4-sulfonamide]",10 to 100 nM
14,"CCCOc1cccc(Oc2cc3c(cc2NS(=O)(=O)c2c(C)n[nH]c2C)n(C)c(=O)n3C)c1 [Example 92, N-(1,3-dimethyl-2-oxo-6-(3-propoxyphenoxy)-2,3-dihydro-1H-benzo[d]imidazol-5-yl)-3,5-dimethyl-1H-pyrazole-4-sulfonamide]",10 to 100 nM
15,"CCCOc1ccc(F)c(Oc2cc3c(cc2NS(=O)(=O)c2ccc(OC)c(OC)c2)n(C)c(=O)n3C)c1 [Example 134, N-(6-(2-fluoro-5-propoxyphenoxy)-1,3-dimethyl-2-oxo-2,3-dihydro-1H-benzo[d]imidazol-5-yl)-3,4-dimethoxybenzenesulfonamide]",10 to 100 nM
16,"Cc1c(S(=O)(=O)Nc2cc3c(cc2Oc2cc(OCCCCN(C)C)cc(OCC(F)(F)F)c2)n(C)c(=O)n3C)cnn1C [Example 212, N-(6-(3-(4-(dimethylamino)butoxy)-5-(2,2,2-trifluoroethoxy)phenoxy)-1,3-dimethyl-2-oxo-2,3-dihydro-1H-benzo[d]imidazol-5-yl)-1,5-dimethyl-1H-pyrazole-4-sulfonamide]",1 to 10 nM
17,"Cc1n[nH]c(C)c1S(=O)(=O)Nc1cc2c(cc1Oc1cccc(OCc3ccccc3)c1)n(C)c(=O)n2C [Example 2, N-(6-(3-(benzyloxy)phenoxy)-1,3-dimethyl-2-oxo-2,3-dihydro-1H-benzo[d]imidazol-5-yl)-3,5-dimethyl-1H-pyrazole-4-sulfonamide]",100 to 1000 nM
18,"CCCOc1cc(OCCCOC)cc(Oc2cc3c(cc2NS(=O)(=O)c2cn(CC(C)C)cn2)n(C)c(=O)n3C)c1 [Example 147, 1-isobutyl-N-(6-(3-(3-methoxypropoxy)-5-propoxyphenoxy)-1,3-dimethyl-2-oxo-2,3-dihydro-1H-benzo[d]imidazol-5-yl)-1H-imidazole-4-sulfonamide]",10 to 100 nM
19,"CCCOc1cc(OCCCCN)cc(Oc2cc3c(cc2NS(=O)(=O)c2ccc(OC)c(OC)c2)n(C)c(=O)n3C)c1 [Example 196, N-(6-(3-(4-aminobutoxy)-5-propoxyphenoxy)-1,3-dimethyl-2-oxo-2,3-dihydro-1H-benzo[d]imidazol-5-yl)-3,4-dimethoxybenzenesulfonamide]",1 to 10 nM
20,"CCCOc1cc(OCCCCCN)cc(Oc2cc3c(cc2NS(=O)(=O)c2cn(C)cn2)n(C)c(=O)n3C)c1 [Example 197, N-(6-(3-((5-aminopentyl)oxy)-5-propoxyphenoxy)-1,3-dimethyl-2-oxo-2,3-dihydro-1H-benzo[d]imidazol-5-yl)-1-methyl-1H-imidazole-4-sulfonamide]",10 to 100 nM
21,"CCCOc1cc(OCCCCCCN)cc(Oc2cc3c(cc2NS(=O)(=O)c2cn(C)c(C)n2)n(C)c(=O)n3C)c1 [Example 182, N-(6-(3-((6-aminohexyl)oxy)-5-propoxyphenoxy)-1,3-dimethyl-2-oxo-2,3-dihydro-1H-benzo[d]imidazol-5-yl)-1,2-dimethyl-1H-imidazole-4-sulfonamide]",10 to 100 nM
22,"CCCOc1cc(OCCCCN)cc(Oc2cc3c(cc2NS(=O)(=O)c2cnn(C)c2C)n(C)c(=O)n3C)c1 [Example 199, N-(6-(3-(4-aminobutoxy)-5-propoxyphenoxy)-1,3-dimethyl-2-oxo-2,3-dihydro-1H-benzo[d]imidazol-5-yl)-1,5-dimethyl-1H-pyrazole-4-sulfonamide]",10 to 100 nM
23,"CN(C)CCCCOc1cccc(Oc2cc3c(cc2NS(=O)(=O)c2cn(C)cn2)n(C)c(=O)n3C)c1 [Example 9, N-(6-(3-(4-(dimethylamino)butoxy)phenoxy)-1,3-dimethyl-2-oxo-2,3-dihydro-1H-benzo[d]imidazol-5-yl)-1-methyl-1H-imidazole-4-sulfonamide 2,2,2-trifluoroacetate]",> 1000 nM
24,COCCCOc1cc(OCC(F)(F)F)cc(Oc2cc3c(cc2NS(=O)(=O)c2ccc(OC)c(OC)c2)n(C)c(=O)n3C)c1 [Example 195],10 to 100 nM
25,"Cn1cnc(S(=O)(=O)Nc2cc3c(cc2Oc2cccc(OCC(F)(F)F)c2)n(C)c(=O)n3C)c1 [Example 71, N-(1,3-dimethyl-2-oxo-6-(3-(2,2,2-trifluoroethoxy)phenoxy)-2,3-dihydro-1H-benzo[d]imidazol-5-yl)-1-methyl-1H-imidazole-4-sulfonamide]",10 to 100 nM
26,"CCCOc1cc(OCCCCN(C)C)cc(Oc2cc3c(cc2NS(=O)(=O)c2cccc(C(=O)O)c2)n(C)c(=O)n3C)c1 [Example 253, 3-(N-(6-(3-(4-(dimethylamino)butoxy)-5-propoxyphenoxy)-1,3-dimethyl-2-oxo-2,3-dihydro-1H-benzo[d]imidazol-5-yl)sulfamoyl)benzoic acid]",10 to 100 nM
27,"CCCOc1cc(OCCCOC)cc(Oc2cc3c(cc2NS(=O)(=O)c2cn(C)nc2C)n(C)c(=O)n3C)c1 [Example 206, N-(6-(3-(3-methoxypropoxy)-5-propoxyphenoxy)-1,3-dimethyl-2-oxo-2,3-dihydro-1H-benzo[d]imidazol-5-yl)-1,3-dimethyl-1H-pyrazole-4-sulfonamide]",10 to 100 nM
28,"Cc1c(S(=O)(=O)Nc2cc3c(cc2Oc2cc(OCCCCCCN)cc(OCC(F)(F)F)c2)n(C)c(=O)n3C)cnn1C [Example 200, N-(6-(3-((6-aminohexyl)oxy)-5-(2,2,2-trifluoroethoxy)phenoxy)-1,3-dimethyl-2-oxo-2,3-dihydro-1H-benzo[d]imidazol-5-yl)-1,5-dimethyl-1H-pyrazole-4-sulfonamide]",1 to 10 nM
